Experimental data published in ChEMBL document CHEMBL3632483, “Synthesis and pharmacological evaluation of piperidine (piperazine)-substituted benzoxazole derivatives as multi-target antipsychotics” (Bioorg Med Chem Lett, 2015).
Active and inactive are the calls of the source. The calls are words filed in the database; no cut-off is given here.

What was measured:
[1] = molecular target: T1, 5-hydroxytryptamine receptor 1A (Rattus norvegicus, UniProt P19327); test: Displacement of [3H]8-OH-DPAT from 5-HT1A receptor in rat cerebral cortex homogenates after 60 mins by liquid scintillation counting; type: tissue-based
T1 sequence (P19327 whole entry): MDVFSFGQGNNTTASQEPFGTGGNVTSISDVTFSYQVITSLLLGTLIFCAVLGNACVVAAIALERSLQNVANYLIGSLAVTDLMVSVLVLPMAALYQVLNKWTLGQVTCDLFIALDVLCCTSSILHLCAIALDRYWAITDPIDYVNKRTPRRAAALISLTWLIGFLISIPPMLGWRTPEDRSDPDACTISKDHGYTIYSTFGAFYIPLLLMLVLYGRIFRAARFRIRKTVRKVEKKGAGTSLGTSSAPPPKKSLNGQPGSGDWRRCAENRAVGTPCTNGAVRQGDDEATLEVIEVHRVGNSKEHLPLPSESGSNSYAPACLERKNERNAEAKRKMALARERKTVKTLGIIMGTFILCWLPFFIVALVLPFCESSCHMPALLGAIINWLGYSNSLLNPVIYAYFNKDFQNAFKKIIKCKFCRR

[2] = molecular target: T2, Adrenergic receptor alpha-2 (Rattus norvegicus, UniProt P22086+P19328+P22909); test: Displacement of [3H]-rauwolscine from adrenergic alpha2 receptor in rat cerebral cortex homogenates after 60 mins by liquid scintillation counting; type: tissue-based
T2 sequence (P22086 whole entry): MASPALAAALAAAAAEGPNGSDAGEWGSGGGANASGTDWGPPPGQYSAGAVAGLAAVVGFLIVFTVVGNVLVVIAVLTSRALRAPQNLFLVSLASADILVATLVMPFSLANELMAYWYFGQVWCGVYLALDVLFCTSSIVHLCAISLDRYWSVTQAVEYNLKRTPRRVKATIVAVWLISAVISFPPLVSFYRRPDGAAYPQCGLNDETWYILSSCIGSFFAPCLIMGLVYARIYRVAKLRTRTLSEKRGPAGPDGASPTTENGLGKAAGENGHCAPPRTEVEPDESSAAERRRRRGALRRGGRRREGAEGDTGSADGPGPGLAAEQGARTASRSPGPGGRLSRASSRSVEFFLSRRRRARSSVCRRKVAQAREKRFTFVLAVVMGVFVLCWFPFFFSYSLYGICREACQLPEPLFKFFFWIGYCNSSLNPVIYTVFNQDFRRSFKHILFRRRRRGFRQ
T2 sequence (P19328 whole entry): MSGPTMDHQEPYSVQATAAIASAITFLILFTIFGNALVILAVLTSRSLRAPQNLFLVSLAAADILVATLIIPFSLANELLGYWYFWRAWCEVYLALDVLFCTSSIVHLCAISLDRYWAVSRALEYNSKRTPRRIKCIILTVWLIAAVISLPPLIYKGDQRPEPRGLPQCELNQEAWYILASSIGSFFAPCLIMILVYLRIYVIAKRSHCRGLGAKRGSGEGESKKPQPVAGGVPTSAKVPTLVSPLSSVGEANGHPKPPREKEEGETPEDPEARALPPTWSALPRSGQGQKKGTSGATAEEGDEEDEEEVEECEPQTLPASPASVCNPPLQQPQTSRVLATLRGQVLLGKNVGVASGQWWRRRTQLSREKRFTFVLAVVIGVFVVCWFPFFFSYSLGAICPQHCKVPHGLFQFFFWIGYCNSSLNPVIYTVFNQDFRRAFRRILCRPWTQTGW
T2 sequence (P22909 whole entry): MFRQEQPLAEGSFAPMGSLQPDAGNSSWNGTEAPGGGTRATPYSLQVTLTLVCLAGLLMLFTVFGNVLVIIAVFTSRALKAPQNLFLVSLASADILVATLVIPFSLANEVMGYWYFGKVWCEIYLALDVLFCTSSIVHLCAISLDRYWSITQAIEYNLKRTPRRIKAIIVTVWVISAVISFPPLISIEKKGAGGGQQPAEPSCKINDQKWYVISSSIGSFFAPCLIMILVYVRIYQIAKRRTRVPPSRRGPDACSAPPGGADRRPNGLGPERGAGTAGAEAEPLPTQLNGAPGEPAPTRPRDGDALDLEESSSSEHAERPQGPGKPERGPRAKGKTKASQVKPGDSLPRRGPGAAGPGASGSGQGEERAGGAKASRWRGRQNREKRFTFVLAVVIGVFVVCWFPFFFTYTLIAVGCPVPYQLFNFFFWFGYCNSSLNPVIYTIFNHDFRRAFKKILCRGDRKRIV

Histamine H1 receptor = Histamine H1 receptor (Cavia porcellus, UniProt P31389); test: Displacement of [3H]mepyramine from histamine H1 receptor in guinea pig cerebellum homogenates after 60 mins by liquid scintillation counting
Chain of Histamine H1 receptor (P31389 whole entry): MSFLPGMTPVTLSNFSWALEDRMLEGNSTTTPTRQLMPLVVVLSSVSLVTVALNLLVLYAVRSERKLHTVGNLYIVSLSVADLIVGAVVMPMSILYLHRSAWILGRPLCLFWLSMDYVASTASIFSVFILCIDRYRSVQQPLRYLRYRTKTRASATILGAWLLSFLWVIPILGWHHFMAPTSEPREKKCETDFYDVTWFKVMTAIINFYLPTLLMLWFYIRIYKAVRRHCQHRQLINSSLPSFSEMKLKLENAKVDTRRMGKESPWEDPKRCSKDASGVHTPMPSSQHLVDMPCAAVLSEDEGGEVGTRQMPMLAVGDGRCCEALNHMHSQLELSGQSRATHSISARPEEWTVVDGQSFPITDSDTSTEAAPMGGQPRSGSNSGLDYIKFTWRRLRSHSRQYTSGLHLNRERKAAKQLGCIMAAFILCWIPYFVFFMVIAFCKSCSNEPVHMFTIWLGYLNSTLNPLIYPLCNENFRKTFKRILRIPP

Mus musculus [3] = test: Antipsychotic activity in Chinese Kun Ming mouse assessed as inhibition of apomorphine-induced climbing behaviour at 1 mg/kg, po administered 30 mins before apomorphine challenge measured up to 30 mins; type: functional, organism-based
Mus musculus [4] = test: Antipsychotic activity in Chinese Kun Ming mouse assessed as inhibition of apomorphine-induced reaching behaviour at 1 mg/kg, po administered 30 mins before apomorphine challenge measured up to 30 mins; type: functional, organism-based
Mus musculus [5] = test: Antipsychotic activity in po dosed Chinese Kun Ming mouse assessed as inhibition of apomorphine-induced climbing administered 30 mins before apomorphine challenge measured up to 30 mins; type: functional
Mus musculus [6] = test: Antipsychotic activity in po dosed Chinese Kun Ming mouse assessed as inhibition of DOI-induced head twitch administered 60 mins before DOI challenge measured up to 15 mins; type: functional
Mus musculus [7] = test: Toxicity in po dosed Chinese Kun Ming mouse assessed as induction of catalepsy by measuring immobility score of 30 seconds administered 30 mins before first assessment; type: organism-based; conditions: in vivo, 0.5 h
Mus musculus [8] = test: Neurotoxicity in Chinese Kun Ming mouse assessed as locomotor activity by measuring total distance traveled at 1 mg/kg, po administered 1 hr before test measured for 10 mins (reference value: 13263.8 +/- 8034.2 millimeter); type: toxicity, organism-based; conditions: in vivo
Mus musculus [9] = test: Neurotoxicity in Chinese Kun Ming mouse assessed as locomotor activity by measuring total distance traveled at 3 mg/kg, po administered 1 hr before test measured for 10 mins (reference value: 13263.8 +/- 8034.2 millimeter); type: toxicity, organism-based; conditions: in vivo
Mus musculus [10] = test: Neurotoxicity in Chinese Kun Ming mouse assessed as locomotor activity by measuring total distance traveled at 10 mg/kg, po administered 1 hr before test measured for 10 mins (reference value: 13263.8 +/- 8034.2 millimeter); type: toxicity, organism-based; conditions: in vivo

Compound	Ki [1]	Ki [2]	Ki (Histamine H1 receptor)	inhibition (Mus musculus [3])	inhibition (Mus musculus [4])	ED50 (Mus musculus [5])	ED50 (Mus musculus [6])	inhibition (Mus musculus [6])	ED50 (Mus musculus [7])	Activity (Mus musculus [8])	Activity (Mus musculus [9])	Activity (Mus musculus [10])
Fc1ccc2c(C3CCN(CCCOc4ccc(-c5nc6ccccc6o5)cc4)CC3)noc2c1	83.5 nM	153 nM										
Fc1ccc2c(C3CCN(CCCOc4ccc(Cc5nc6ccccc6o5)cc4)CC3)noc2c1	21.3 nM	16.3 nM	3150 nM	Active	Active	0.86 mg/kg	0.71 mg/kg	Dose-dependent effect	70.5 mg/kg	13046.7 mm	10447.5 mm	9492.4 mm
